In ChEMBL document CHEMBL1201862, “PubChem BioAssay data set” (2004):
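The compound was tested at five concentrations on cells cultured in 96-well plates, with a 48-hour exposure period. GI50 marks 50% less growth.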 The source made the active and inactive calls. No stated cut-off is given here; in the data, active = GI50 up to about 1.1 µM and inactive = higher. Residues, ends and D or L forms follow the SMILES beside them. *: point of attachment. Boc = CC(C)(C)OC(=O)*; OBn = c1ccc(CO*)cc1; Bn = c1ccc(C*)cc1

Key:
Assay in all cases: NCI anticancer screen, dose series, 48 h
[1] = test system: OVCAR-8
[2] = test system: KM12
[3] = test system: HCT-116
[4] = test system: HL-60
[5] = test system: HOP-62
[6] = test system: SNB-19
[7] = test system: SW-620
[8] = test system: HCT-15
[9] = test system: COLO 205
[10] = test system: DU-145
[11] = test system: NCI/ADR-RES
[12] = test system: Malme-3M
[13] = test system: MOLT-4
[14] = test system: Hs-578T
[15] = test system: RPMI-8226
[16] = test system: HT-29
[17] = test system: U-251
[18] = test system: NCI-H226
[19] = test system: PC-3

| Structure (SMILES) | GI50 [1] | GI50 [2] | GI50 [3] | GI50 [4] | GI50 [5] | GI50 [6] | GI50 [7] | GI50 [8] | GI50 [9] | GI50 [10] | GI50 [11] | GI50 [12] | GI50 [13] | GI50 [14] | GI50 [15] | GI50 [16] | GI50 [17] | GI50 [18] | GI50 [19] |
| --- | --- | --- | --- | --- | --- | --- | --- | --- | --- | --- | --- | --- | --- | --- | --- | --- | --- | --- | --- |
| S=C=NC1CCC(c2cc3ccccc3s2)(N2CCCCC2)CC1 (configuration not stated) | 1.95 µM (inactive) | 1.87 µM (inactive) | 1.82 µM (inactive) | 1.31 µM (inactive) | 2.07 µM (inactive) | 2.79 µM (inactive) | 2.02 µM (inactive) | 1.53 µM | 1.98 µM (inactive) | 2.08 µM (inactive) | 1.84 µM (inactive) | 1.61 µM (inactive) | 0.127 µM (active) | 2.08 µM (inactive) | 1.46 µM (inactive) | 1.77 µM (inactive) |  |  |  |
| COc1ccc(CSc2ccccc2Cn2cccc2)cc1OC | > 100 µM (inactive) | 28.3 µM (inactive) | 89.1 µM (inactive) | 20.7 µM (inactive) | > 100 µM (inactive) | > 100 µM (inactive) | > 100 µM (inactive) | 87.9 µM | > 100 µM (inactive) | > 100 µM (inactive) | 34.3 µM (inactive) | 28.3 µM (inactive) | > 10 µM (inactive) |  | 11.6 µM (inactive) | 99.8 µM (inactive) | > 100 µM (inactive) | > 100 µM (inactive) |  |
| CCC(C=O)P1(=O)OC(C)(C)CN1C(C)(C)C (configuration not stated) | > 100 µM (inactive) | 24.4 µM (inactive) | 59.8 µM (inactive) |  | 62.5 µM (inactive) | > 100 µM (inactive) | > 100 µM (inactive) | 99.8 µM | > 100 µM (inactive) | > 100 µM (inactive) | 92.3 µM (inactive) | 68.1 µM (inactive) |  |  | 65.3 µM (inactive) | > 100 µM (inactive) | > 100 µM (inactive) | > 100 µM (inactive) | 84.3 µM (inactive) |
| COc1cccc(C2c3cc4c(cc3OC(NNC(N)=O)C2C)OCO4)c1OC (configuration not stated) | 4.32 µM (inactive) | 23.2 µM (inactive) | 14.1 µM (inactive) | 20.8 µM (inactive) | 22 µM (inactive) | 29.1 µM (inactive) | 22.6 µM (inactive) | 9.23 µM | 14.7 µM (inactive) | 20.9 µM (inactive) |  | 25.9 µM (inactive) | 16.5 µM (inactive) | 19.7 µM (inactive) | 13 µM (inactive) | 22.4 µM (inactive) | 20 µM (inactive) | 25.3 µM (inactive) | 19.4 µM (inactive) |
| COc1c2cc(C(C)(C)C)cc1Cc1cccc(c1OCc1cccc([N+](=O)[O-])c1)Cc1cc(C(C)(C)C)cc(c1OC)Cc1cccc(c1OCc1cccc([N+](=O)[O-])c1)Cc1cc(C(C)(C)C)cc(c1OC)Cc1cccc(c1OCc1cccc([N+](=O)[O-])c1)C2 | > 50 µM (inactive) | > 50 µM (inactive) | > 50 µM (inactive) | > 50 µM (inactive) | > 50 µM (inactive) | > 50 µM (inactive) | > 50 µM (inactive) | > 50 µM | > 50 µM (inactive) | > 50 µM (inactive) | > 50 µM (inactive) | > 50 µM (inactive) | > 50 µM (inactive) |  | > 50 µM (inactive) | > 50 µM (inactive) | > 50 µM (inactive) |  | > 50 µM (inactive) |
| O=C(Nc1nc2ncn(CC(COc3ccccc3)OC(=O)c3ccccc3)c2c(=O)[nH]1)c1ccccc1 (configuration not stated) | > 100 µM (inactive) | > 100 µM (inactive) | > 100 µM (inactive) | < 0.01 µM (active) | > 100 µM (inactive) | > 100 µM (inactive) | > 100 µM (inactive) | > 100 µM |  |  |  | > 100 µM (inactive) | > 100 µM (inactive) |  | > 100 µM (inactive) | > 100 µM (inactive) | > 100 µM (inactive) | > 100 µM (inactive) |  |
| O=c1oc2c(Cl)cc(Cl)cc2cc1C1=CSC2=NCCN12 | 63.7 µM (inactive) | 57.8 µM (inactive) | 31 µM (inactive) | 30.3 µM (inactive) | 38.8 µM (inactive) | 44.8 µM (inactive) | 50.5 µM (inactive) | 44.7 µM | > 100 µM (inactive) | 40.1 µM (inactive) | 79.6 µM (inactive) |  | 39.3 µM (inactive) |  | 58.9 µM (inactive) | 61.2 µM (inactive) | 44.7 µM (inactive) |  | 42.1 µM (inactive) |
| CN(C)C(=S)N/N=C\C=N/NC(=S)N(C)C | 0.175 µM (active) | 0.525 µM (active) |  |  | 0.129 µM (active) | 0.731 µM (active) | 0.0569 µM (active) | 0.0843 µM | 0.246 µM (active) | 0.155 µM (active) | 0.189 µM (active) | 0.182 µM (active) |  |  | 0.871 µM (active) | 0.0625 µM (active) | 0.0614 µM (active) | 0.515 µM (active) | 0.182 µM (active) |
| N#CC(c1nc2ccccc2s1)c1ncnc(Cl)c1[N+](=O)[O-] (configuration not stated) | 18.5 µM (inactive) | 32.5 µM (inactive) | 12.6 µM (inactive) |  | 28.8 µM (inactive) | 32.1 µM (inactive) | 19.3 µM (inactive) | 17.9 µM | 15.5 µM (inactive) | 34.1 µM (inactive) | 17.8 µM (inactive) | 19.4 µM (inactive) | 31.8 µM (inactive) |  | 28.1 µM (inactive) | 17.4 µM (inactive) | 32.7 µM (inactive) | 20.2 µM (inactive) |  |
| C1CCC2C(C1)CCCC2NC1=NCCO1 (configuration not stated) | > 100 µM (inactive) | > 100 µM (inactive) | > 100 µM (inactive) | > 100 µM (inactive) | > 100 µM (inactive) | > 100 µM (inactive) | > 100 µM (inactive) | > 100 µM | > 100 µM (inactive) | > 100 µM (inactive) | > 100 µM (inactive) | > 100 µM (inactive) | > 100 µM (inactive) |  | 92.5 µM (inactive) | 35.7 µM (inactive) | > 100 µM (inactive) | > 100 µM (inactive) | 93.5 µM (inactive) |
| O=C1CC(O)c2c(Br)sc(Br)c21 (configuration not stated) | 5.01 µM (inactive) | 7.48 µM (inactive) | 12.4 µM (inactive) | 3.2 µM (inactive) | 10.6 µM (inactive) | 18.6 µM (inactive) | 1.93 µM (inactive) | 11.3 µM | 13.2 µM (inactive) | 10.4 µM (inactive) | 30.3 µM (inactive) | 17.1 µM (inactive) | 1.91 µM (inactive) | 25.6 µM (inactive) | 2.47 µM (inactive) | 17.7 µM (inactive) | 4.54 µM (inactive) |  | 13 µM (inactive) |
| CC(C)CC(NC(=O)C(Cc1ccccc1)NC(=O)C(COCc1ccccc1)NC(=O)OC(C)(C)C)C(=O)OCc1ccccc1 (stereo not drawn) (Boc-Ser(Bn)-Phe-Leu-OBn; configuration not given here) | 18.7 µM (inactive) |  | 18.5 µM (inactive) | 4.01 µM (inactive) | 49.4 µM (inactive) | > 100 µM (inactive) | 22.1 µM (inactive) | 16.3 µM | 17.5 µM (inactive) | 9.57 µM (inactive) | > 100 µM (inactive) | 78.2 µM (inactive) | 13.9 µM (inactive) |  | 6.95 µM (inactive) | 15.9 µM (inactive) | 22.3 µM (inactive) |  | 22.3 µM (inactive) |
